Laboratory results as given in PMC12881674, “Activation of TRPV3 channels in bladder cancer cells stimulates ATP release” (Molecular Pharmacology, 2025).

Experiments:
mouse TRPV4 = molecular target: T1, mouse TRPV4 (Mus musculus, UniProt Q9EPK8); test: fluo-4 Ca2+ assay selectivity, HEK cells expressing mouse TRPV4; assay type: cell-based; conditions: concentrations up to 50 μM
T1 construct: expressed in transfected cells; host or cells: HEK293
Source text: (§1) KU-19-19 (DSMZ no. ACC 395), CAL-29 (DSMZ no. ACC 515), 647-V (DSMZ no. ACC 414), RT-4 (DSMZ no. ACC 412), and RT-112 (DSMZ no. ACC 418) bladder cancer cell lines were obtained from the Leibniz Institute DSMZ (German Collection of Microorganisms and Cell Cultures). Human TRPV3 (NM_145068, purchased from OriGene) and mouse TRPV3 (NM_001371006), rat TRPV1, mouse TRPV2, mouse TRPV4, human TRPM2, human TRPM8, and human TRPA1 were stably transfected in HEK293 cells as described before.[27] […]
(§2) All fluorometric Ca^2+ assays were performed in HBS buffer at room temperature. […] For the primary compound screening and the generation of concentration-response analyses, a robotic liquid handling station (Freedom Evo 150; Tecan) with a built-in custom-made fluorescence plate imager was used. […] Fluorescence was excited using a 470-nm light-emitting diode, and emitted light was imaged through a 515-nm–long pass filter with a cooled Zyla 5.5 camera (Andor). Fluorescence was recorded and processed under the control of the μ-Manager 2.0 gamma software (https://micro-manager.org.[28]). After recording baseline fluorescence, compounds were dispensed into the wells via the liquid handling device. […] For further analysis, fluorescence signals were calculated for each well, corrected for background intensities and normalized to the initial signals. […]

mouse TRPV2 = molecular target: T2, mouse TRPV2 (Mus musculus, UniProt Q9WTR1); test: fluo-4 Ca2+ assay selectivity, HEK cells expressing mouse TRPV2; assay type: cell-based; conditions: concentrations up to 50 μM
T2 construct: expressed in transfected cells; host or cells: HEK293
T2 sequence (Q9WTR1 1-756): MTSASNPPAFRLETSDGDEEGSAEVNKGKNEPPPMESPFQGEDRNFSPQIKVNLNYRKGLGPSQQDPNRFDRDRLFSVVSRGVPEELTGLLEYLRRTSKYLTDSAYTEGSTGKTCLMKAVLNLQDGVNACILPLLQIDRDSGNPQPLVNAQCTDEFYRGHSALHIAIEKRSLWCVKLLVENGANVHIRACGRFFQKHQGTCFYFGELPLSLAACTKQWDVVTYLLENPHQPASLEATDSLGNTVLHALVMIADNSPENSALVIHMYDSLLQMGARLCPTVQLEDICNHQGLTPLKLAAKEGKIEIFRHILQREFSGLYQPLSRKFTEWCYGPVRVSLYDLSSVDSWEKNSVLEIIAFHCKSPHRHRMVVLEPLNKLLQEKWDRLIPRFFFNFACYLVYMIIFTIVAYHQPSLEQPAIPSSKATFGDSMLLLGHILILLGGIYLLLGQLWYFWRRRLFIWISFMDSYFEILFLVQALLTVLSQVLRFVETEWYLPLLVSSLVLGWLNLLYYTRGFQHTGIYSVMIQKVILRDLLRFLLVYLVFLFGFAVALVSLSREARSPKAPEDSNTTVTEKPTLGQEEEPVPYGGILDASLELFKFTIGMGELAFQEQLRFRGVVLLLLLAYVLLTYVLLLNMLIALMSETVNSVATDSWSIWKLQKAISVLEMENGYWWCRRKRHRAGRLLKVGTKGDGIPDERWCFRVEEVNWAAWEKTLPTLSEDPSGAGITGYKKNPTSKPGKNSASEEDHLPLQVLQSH
Source text: as §1, §2

T1 sequence (Q9EPK8 whole entry): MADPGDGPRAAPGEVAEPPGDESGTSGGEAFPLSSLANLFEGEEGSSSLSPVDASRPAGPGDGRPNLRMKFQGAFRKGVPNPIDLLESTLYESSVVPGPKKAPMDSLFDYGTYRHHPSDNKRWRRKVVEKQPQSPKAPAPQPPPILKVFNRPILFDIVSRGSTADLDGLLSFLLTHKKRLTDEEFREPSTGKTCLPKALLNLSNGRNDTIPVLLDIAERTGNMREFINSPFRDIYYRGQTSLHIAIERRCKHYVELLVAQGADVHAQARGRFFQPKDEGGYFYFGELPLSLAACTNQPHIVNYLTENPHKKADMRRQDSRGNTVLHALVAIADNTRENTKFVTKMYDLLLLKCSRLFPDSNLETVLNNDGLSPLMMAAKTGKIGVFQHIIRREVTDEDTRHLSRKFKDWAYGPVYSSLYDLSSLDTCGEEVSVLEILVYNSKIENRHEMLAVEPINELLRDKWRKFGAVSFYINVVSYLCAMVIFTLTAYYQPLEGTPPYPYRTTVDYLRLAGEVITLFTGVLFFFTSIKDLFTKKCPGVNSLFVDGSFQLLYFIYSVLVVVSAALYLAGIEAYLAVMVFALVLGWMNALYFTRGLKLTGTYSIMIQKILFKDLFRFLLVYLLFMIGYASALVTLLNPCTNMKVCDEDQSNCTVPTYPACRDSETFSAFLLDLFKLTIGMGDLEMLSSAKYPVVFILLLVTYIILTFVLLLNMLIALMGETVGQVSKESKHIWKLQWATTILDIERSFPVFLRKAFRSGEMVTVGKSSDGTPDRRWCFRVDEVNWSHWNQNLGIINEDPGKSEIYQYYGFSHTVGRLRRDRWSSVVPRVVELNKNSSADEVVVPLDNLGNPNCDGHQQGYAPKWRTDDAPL

- effect on TRPV4 (mouse TRPV4): no effect
- effect on TRPV2 (mouse TRPV2): no effect
SMILES: COC(=O)C12CN(Cc3ccccc3)CC1(C(=O)OC)CN(Cc1ccccc1)C2 (centres unmarked) [AV3-1]
